Experiments:
[1] = Therapeutic range / therapeutic index (quotient of LD 50 and ED 20%); conditions: in vivo; quotient of LD 50 (mouse i.p.) and ED 20% (rat i.v.)
From the text: The therapeutic range is the quotient of the LD 50 and the ED 20%.

[2] = Acute toxicity, intraperitoneal administration; conditions: in vivo, ip, mouse, groups of 10 female NMRI mice, read-out: Toxicity LD 50
Method: In addition to the hypotensive action, the acute toxicity (LD 50, mg/kg), for intraperitoneal administration, was determined for groups of 10 female NMRI mice, weighing 22-27 g.
^(3) Mouse. Intraperitoneal

blood pressure = experiment: Hypotensive action in rats under urethane narcosis (carotid artery blood pressure, intravenous administration); format: in vivo, male Sprague-Dawley rats; conditions: rat; for ED20: iv, urethane narcosis 1.78 g/kg i.p., compound i.v. into jugular vein, read-out: Hypotensive action ED 20% (dose which caused a 20% reduction in blood pressure); for Hypotensive action R.A. (relative activity, Urapidil = 1.00): urethane narcosis, i.v., relative to Urapidil = 1.00
Method: Male Sprague-Dawley rats weighing 220-280 g were used, under urethane narcosis (1.78 g/kg, administered intraperitoneally) for the investigation. The blood pressure was measured directly in the carotid artery. The compound was administered intravenously into the jugular vein. The dose (mg/kg) which caused a 20% reduction in blood pressure was determined as the ED 20%. | ^(1) Rat. Urethane narcosis. Intravenous administration. | ^(2) Relative activity.

`COc1ccccc1N1CCN(CC(O)COc2ccccc2-c2nnc(C)o2)CC1` (stereo not shown) [Example 2] gave a selectivity ratio [1] of 2540, an LD50 [2] of 56.2 mg/kg and an ED20 (blood pressure) of 0.0221 mg/kg. For the same molecule, the “Hypotensive action R.A. (relative activity, Urapidil = 1.00)” value (blood pressure) was 8.55.

With `COc1ccccc1N1CCN(CC(O)COc2cccc(-c3nnco3)c2)CC1` (stereo not shown) [Example 7, 1-[3-(1,3,4-Oxadiazol-2-yl)-phenoxy]-3-[4-(2-methoxyphenyl)piperazin-1-yl]-propan-2-ol] the selectivity ratio [1] was 2850, the LD50 [2] was 215 mg/kg and the ED20 (blood pressure) was 0.0754 mg/kg. The “Hypotensive action R.A. (relative activity, Urapidil = 1.00)” value (blood pressure) was 2.51.

`CCOc1ccccc1N1CCN(CC(O)COc2cccc(-c3nnco3)c2)CC1` (stereo not shown) [Example 9, 1-[3-(1,3,4-Oxadiazol-2-yl)-phenoxy]-3-[4-(2-ethoxyphenyl)-piperazin-1-yl]-propan-2-ol] gave a selectivity ratio [1] of 25600, an LD50 [2] of 215 mg/kg and an ED20 (blood pressure) of 0.0084 mg/kg. For the same molecule, the “Hypotensive action R.A. (relative activity, Urapidil = 1.00)” value (blood pressure) was 22.50.

With `COc1ccccc1N1CCN(CC(O)COc2cccc(-c3nnc(C)o3)c2)CC1` (stereo not shown) [Example 10, 1-[3-(5-Methyl-1,3,4-oxadiazol-2-yl)-phenoxy]-3-[4-(2-methoxyphenyl)-piperazin-1-yl]-propan-2-ol] the selectivity ratio [1] was 6730, the LD50 [2] was 224 mg/kg and the ED20 (blood pressure) was 0.0333 mg/kg. For the same molecule, the “Hypotensive action R.A. (relative activity, Urapidil = 1.00)” value (blood pressure) was 5.68.

In the case of `CCOc1ccccc1N1CCN(CC(O)COc2cccc(-c3nnc(C)o3)c2)CC1` (stereo not shown) [Example 12, 1-[3-(5-Methyl-1,3,4-oxadiazol-2-yl)-phenoxy]-3-[4-(2-ethoxyphenyl)-piperazin-1-yl]-propan-2-ol], the selectivity ratio [1] is reported as 8300, the LD50 [2] is reported as 162 mg/kg and the ED20 (blood pressure) is reported as 0.0195 mg/kg. The “Hypotensive action R.A. (relative activity, Urapidil = 1.00)” value (blood pressure) was 9.69.

For `Cc1nnc(-c2cccc(OCC(O)CN3CCN(c4ccccc4Cl)CC3)c2)o1` (stereo not shown) [Example 16, 1-[3-(5-Methyl-1,3,4-oxadiazol-2-yl)-phenoxy]-3-[4-(2-chlorophenyl)-piperazin-1-yl]-propan-2-ol], the selectivity ratio [1] was 2490, the LD50 [2] was 178 mg/kg and the ED20 (blood pressure) was 0.0716 mg/kg. The “Hypotensive action R.A. (relative activity, Urapidil = 1.00)” value (blood pressure) was 2.64.

Molecule `COc1ccccc1N1CCN(CCCNc2cc(=O)n(C)c(=O)n2C)CC1` [Urapidil, 6-{3-[4-(2-methoxyphenyl)-piperazin-1-yl]-propylamino}-1,3-dimethyluracil, reference compound] has a selectivity ratio [1] of 1920, an LD50 [2] of 362 mg/kg and an ED20 (blood pressure) of 0.189 mg/kg. The “Hypotensive action R.A. (relative activity, Urapidil = 1.00)” value (blood pressure) was 1.00.

Source: patent US4353904A, “Phenylpiperazine derivatives of 1,3,4-oxadiazolylphenols, and therapeutic agents containing these compounds” (BASF Aktiengesellschaft, priority 1980, dated 1982)
